Reference: article PMC10132805 (Nature Communications, 2023)
Entries after “also recorded” stand apart in the source; their conditions may differ. Read-outs that look alike come from different tables or passages of the source. Residues, ends and D or L forms follow the SMILES beside them. No end group written: not given here. *: point of attachment. FITC = O=C1OC2(c3ccc(O)cc3Oc3cc(O)ccc32)c2ccc(NC(=S)*)cc21

Experiments:
Assay type in all cases: binding
CEP55 EABR = CEP55 EABR (Homo sapiens, UniProt Q53EZ4); experiment: biochemical; conditions: for KD: pH 7.5
Chain of CEP55 EABR (Q53EZ4 160-214 limits assumed): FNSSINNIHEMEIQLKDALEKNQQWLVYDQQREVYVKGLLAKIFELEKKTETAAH

PABPC1 PABC = PABPC1 PABC (Homo sapiens, UniProt P11940); experiment: biochemical
Chain of PABPC1 PABC (P11940 542-619 limits assumed): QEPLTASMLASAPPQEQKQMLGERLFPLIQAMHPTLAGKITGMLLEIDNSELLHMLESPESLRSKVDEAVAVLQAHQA

NEDD4 WW2 = NEDD4 WW2 (Homo sapiens, UniProt P46934); experiment: biochemical
Chain of NEDD4 WW2 (P46934 767-800 limits assumed): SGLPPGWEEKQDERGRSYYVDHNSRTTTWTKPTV

NEDD4 WW4 = NEDD4 WW4 (Homo sapiens, UniProt P46934); experiment: biochemical
Chain of NEDD4 WW4 (P46934 892-925 limits assumed): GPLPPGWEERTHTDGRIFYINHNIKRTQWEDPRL

ALIX V = ALIX V (Homo sapiens, UniProt Q8WUM4); experiment: biochemical
Chain of ALIX V (Q8WUM4 360-702): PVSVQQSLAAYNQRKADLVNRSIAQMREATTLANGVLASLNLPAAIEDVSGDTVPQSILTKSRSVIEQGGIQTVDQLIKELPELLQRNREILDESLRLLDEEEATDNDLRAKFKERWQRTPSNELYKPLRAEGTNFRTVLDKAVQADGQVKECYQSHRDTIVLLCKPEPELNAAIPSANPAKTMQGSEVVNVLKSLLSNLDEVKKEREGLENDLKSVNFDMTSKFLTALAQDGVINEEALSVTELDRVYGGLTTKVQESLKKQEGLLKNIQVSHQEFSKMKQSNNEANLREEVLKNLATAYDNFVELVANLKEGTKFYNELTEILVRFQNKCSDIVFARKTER

[1] = test system: 139 human bait protein domains; conditions: for specificity / RiboVD_mean_counts / RiboVD_count_proportions / peptide_counts_proportion: bait YAP1 WW-2 (P46937, 228-266); for RiboVD_mean_counts: mean sequencing counts over replicate selections; for RiboVD_count_proportions: proportion of counts; for motif_found: motif benchmarking set
CLTC NTD = CLTC NTD (Homo sapiens, UniProt Q00610); experiment: biochemical
Chain of CLTC NTD (Q00610 2-479 limits assumed): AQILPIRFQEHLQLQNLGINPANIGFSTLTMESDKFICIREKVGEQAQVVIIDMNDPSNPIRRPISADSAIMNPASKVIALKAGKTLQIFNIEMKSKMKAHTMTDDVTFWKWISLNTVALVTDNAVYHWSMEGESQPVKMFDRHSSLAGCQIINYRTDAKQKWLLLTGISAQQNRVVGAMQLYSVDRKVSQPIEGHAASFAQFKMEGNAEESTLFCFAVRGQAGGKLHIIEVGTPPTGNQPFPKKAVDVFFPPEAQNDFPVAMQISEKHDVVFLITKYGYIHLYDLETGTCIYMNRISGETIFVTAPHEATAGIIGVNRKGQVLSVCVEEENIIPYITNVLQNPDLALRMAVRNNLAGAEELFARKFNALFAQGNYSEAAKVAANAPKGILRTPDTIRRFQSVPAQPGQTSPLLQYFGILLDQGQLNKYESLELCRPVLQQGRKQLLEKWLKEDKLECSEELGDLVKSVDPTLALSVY

AP2M1 MHD = AP2M1 MHD (Homo sapiens, UniProt Q96CW1); experiment: biochemical
Chain of AP2M1 MHD (Q96CW1 170-434 limits assumed): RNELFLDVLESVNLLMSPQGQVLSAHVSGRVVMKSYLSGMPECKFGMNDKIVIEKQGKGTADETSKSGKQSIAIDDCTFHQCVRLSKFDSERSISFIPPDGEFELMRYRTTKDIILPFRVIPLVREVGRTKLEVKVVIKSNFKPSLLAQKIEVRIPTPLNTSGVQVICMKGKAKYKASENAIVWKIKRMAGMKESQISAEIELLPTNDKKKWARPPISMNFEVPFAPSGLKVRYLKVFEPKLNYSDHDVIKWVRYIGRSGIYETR

[2] = replicate 1 (first entry of cell)
[3] = replicate 2 (second entry of cell)
[4] = replicate 3 (third entry of cell)

**Q.** How did the Kd (CEP55 EABR) turn out when `CC(C)C[C@H](NC(=O)[C@H](C)NC(=O)[C@@H]1CCCN1C(=O)[C@@H]1CCCN1C(=O)CNC(=O)[C@H](CO)NC(=O)[C@H](C)NC(=O)[C@@H](N)[C@@H](C)O)C(=O)N[C@@H](CCC(=O)O)C(=O)N[C@@H](Cc1c[nH]c2ccccc12)C(=O)N[C@@H](CO)C(=O)N[C@@H](C)C(=O)N[C@H](C(=O)N[C@@H](CC(N)=O)C(=O)N[C@@H](CCC(=O)O)C(=O)N[C@@H](CCCCN)C(=O)O)[C@@H](C)O` [P 177-192 (RABV)] was run?
**A.** 22.3 µM

**Q.** `CC(C)[C@H](NC(=O)[C@H](C)NC(=O)[C@@H](N)[C@@H](C)O)C(=O)N[C@@H](C)C(=O)N1CCC[C@H]1C(=O)N1CCC[C@H]1C(=O)N[C@@H](C)C(=O)N1CCC[C@H]1C(=O)N[C@H](C(=O)N[C@@H](Cc1ccc(O)cc1)C(=O)N[C@@H](CCCNC(=N)N)C(=O)N[C@@H](CO)C(=O)N[C@@H](C)C(=O)N[C@@H](CCC(=O)O)C(=O)N[C@@H](C)C(=O)N[C@@H](Cc1c[nH]cn1)C(=O)O)C(C)C` [NP 602-617 (REBOV)] was tested. Which Kd (CEP55 EABR) did it give?
**A.** 2.18 µM

**Q.** For `C[C@H](NC(=O)[C@H](CCC(N)=O)NC(=S)Nc1ccc2c(c1)C(=O)OC21c2ccc(O)cc2Oc2cc(O)ccc21)C(=O)N[C@@H](CCC(N)=O)C(=O)NCC(=O)N1CCC[C@H]1C(=O)N1CCC[C@H]1C(=O)N[C@@H](Cc1ccc(O)cc1)C(=O)N1CCC[C@H]1C(=O)N[C@H](C(=O)N[C@@H](Cc1ccc(O)cc1)C(=O)N1CCC[C@H]1C(=O)NCC(=O)N[C@@H](Cc1ccc(O)cc1)C(=O)O)[C@@H](C)O` [FITC - PDCD6IP 797-809 (Human)] ({FITC}-QAQGPPYPTYPGY-OH), which Kd (CEP55 EABR) is on record?
**A.** 0.31 µM

**Q.** For NSMLNPNAVPFQPSPQY [N 2-17 (BeV)], which “affinity compared to the peptide from the endogenous PABP inhibitor PAIP2_108-123” value (PABPC1 PABC) is on record?
**A.** ten-fold weaker

**Q.** For `C[C@H](NC(=O)[C@H](CO)NC(=O)[C@H](Cc1ccc(O)cc1)NC(=O)[C@@H]1CCCN1C(=O)[C@@H]1CCCN1C(=O)[C@@H]1CCCN1C(=O)[C@H](CO)NC(=O)[C@H](CC(=O)O)NC(=O)[C@@H](NC(=S)Nc1ccc2c(c1)C(=O)OC21c2ccc(O)cc2Oc2cc(O)ccc21)[C@@H](C)O)C(=O)NCC(=O)O` [FITC - UL56 46-55 (HHV2)] ({FITC}-TDSPPPYSAG-OH), which Kd (NEDD4 WW2) is on record?
**A.** 16 µM

**Q.** What about the Kd (NEDD4 WW4) of the same molecule?
**A.** 82 µM

**Q.** How did the Kd (ALIX V) turn out when `CC(C)C[C@H](NC(=O)[C@H](CO)NC(=O)[C@@H](NC(=O)[C@H](CC(C)C)NC(=O)[C@@H]1CCCN1C(=O)[C@@H]1CCCN1C(=O)[C@H](Cc1ccc(O)cc1)NC(=O)[C@H](CC(C)C)NC(=O)[C@H](CO)NC(=S)Nc1ccc2c(c1)C(=O)OC21c2ccc(O)cc2Oc2cc(O)ccc21)[C@@H](C)O)C(=O)N[C@@H](CCCNC(=N)N)C(=O)O` [FITC - gag 493-502 (HIV1)] ({FITC}-SLYPPLTSLR-OH) was run?
**A.** 2.6 µM

**Q.** Which Kd (NEDD4 WW2) does the source give for “EPDQEPPPPYQEQVPVPVYHPTPSQ [RNF11 31-65 (Human)]” here?
**A.** 15 µM

**Q.** What about the Kd (NEDD4 WW4) of the same molecule?
**A.** 35 µM

**Q.** For VTVPTAPPAYADIGYP, which specificity [1] is on record?
**A.** 0.918

**Q.** What about the RiboVD_mean_counts [1] of the same molecule?
**A.** 10451.3

**Q.** And the RiboVD_count_proportions [1]?
**A.** 0.1499

**Q.** And the peptide_counts_proportion [1, 2]?
**A.** 0.298

**Q.** And the peptide_counts_proportion [1, 3]?
**A.** 0.131

**Q.** What about the peptide_counts_proportion [1, 4] of the same molecule?
**A.** 0.021

**Q.** AELNPPPYNHSYESLH was tested. Which specificity [1] did it give?
**A.** 0.98

**Q.** And the RiboVD_mean_counts [1]?
**A.** 1834

**Q.** What about the RiboVD_count_proportions [1] of the same molecule?
**A.** 0.03738

**Q.** What about the peptide_counts_proportion [1, 2] of the same molecule?
**A.** 0.005

**Q.** And the peptide_counts_proportion [1, 3]?
**A.** 0.079

**Q.** What about the peptide_counts_proportion [1, 4] of the same molecule?
**A.** 0.028

**Q.** Which results are given for “LAVGPPSLNYIPPVLQ [TEX14 792-807 (Human)]”?
**A.** Kd (CEP55 EABR): ~0.3 µM; KD (CEP55 EABR): same order or tighter as the probe; also recorded: Due to the limitatons of our experimental setup we could not calculate the KD values for this peptide, however our experiments suggest very high affinity (mid to low nanomolar)

**Q.** Which Kd (ALIX V) does the source give for MSSLYPSLEDLKVDQA [SDCBP2 1-16 (Human)] here?
**A.** 0.29 µM

**Q.** How did the Kd (ALIX V) turn out when PPPVLYPNLAELENYM [SDCBP2 39-54 (Human)] was run?
**A.** 2.1 µM

**Q.** What does the source list for EPDQEPPPPYQEQVPV [RNF11 31-56 (Human)]?
**A.** Kd (NEDD4 WW2): 13 µM; Kd (NEDD4 WW4): 44 µM

**Q.** With `CC(C)C[C@H](NC(=O)[C@H](CC(N)=O)NC(=O)[C@H](CO)NC(=O)[C@H](CCCCN)NC(=S)Nc1ccc2c(c1)C(=O)OC21c2ccc(O)cc2Oc2cc(O)ccc21)C(=O)N[C@@H](CC(N)=O)C(=O)N1CCC[C@H]1C(=O)N[C@@H](CC(N)=O)C(=O)N[C@@H](C)C(=O)N[C@@H](CCCCN)C(=O)N[C@@H](CCC(=O)O)C(=O)N[C@@H](Cc1ccccc1)C(=O)N[C@H](C(=O)N1CCC[C@H]1C(=O)NCC(=O)N[C@H](C(=O)N[C@@H](CCCCN)C(=O)O)C(C)C)C(C)C` [FITC - PAIP2 108-123 (Human), reference compound] ({FITC}-KSNLNPNAKEFVPGVK-OH) as the molecule, how does the Kd (PABPC1 PABC) read?
**A.** 0.38 µM

**Q.** How did the Kd (CLTC NTD) turn out when `CC[C@H](C)[C@H](NC(=O)[C@H](CC(C)C)NC(=O)[C@H](CC(N)=O)NC(=O)[C@@H](NC(=O)[C@H](CC(=O)O)NC(=S)Nc1ccc2c(c1)C(=O)OC21c2ccc(O)cc2Oc2cc(O)ccc21)[C@@H](C)O)C(=O)N[C@@H](CCC(=O)O)C(=O)N[C@@H](Cc1ccccc1)C(=O)N[C@@H](CC(=O)O)C(=O)N[C@H](C(=O)N[C@@H](CC(N)=O)C(=O)O)[C@@H](C)O` [FITC - ARRB2 370-379 (Human)] ({FITC}-DTNLIEFDTN-OH) was run?
**A.** 26 µM

**Q.** With P36328_1787_1804 as the molecule, how does the motif_found ([1]; bait CD2AP_SH3_1_Q9Y5K6_2_58) read?
**A.** TRUE

**Q.** With “PTDSNFYRALMDEEDM [EGFR 992-1007 (Human)]” as the molecule, how does the Kd (AP2M1 MHD) read?
**A.** 2.4 µM

**Q.** With “VPVDTNLIEFDTNYAT [ARRB2 367-382 (Human)]” as the molecule, how does the Kd (CLTC NTD) read?
**A.** 40 µM

**Q.** For `CC[C@H](C)[C@H](NC(=O)[C@H](CC(=O)O)NC(=O)[C@H](C)NC(=O)[C@H](Cc1ccc(O)cc1)NC(=O)[C@H](C)NC(=O)[C@@H]1CCCN1C(=O)[C@@H]1CCCN1C(=O)[C@H](C)NC(=O)[C@@H](NC(=O)[C@@H]1CCCN1C(=O)[C@@H](NC(=O)[C@@H](NC(=O)[C@@H](NC(=O)[C@H](CCCNC(=N)N)NC(=O)[C@H](CCCNC(=N)N)NC(=O)[C@@H](N)CCSC)C(C)C)[C@@H](C)O)C(C)C)[C@@H](C)O)C(=O)NCC(=O)N[C@@H](Cc1ccc(O)cc1)C(=O)N1CCC[C@H]1C(=O)N[C@@H](CCSC)C(=O)O` [VP40 1-20 (SEBOV)], which Kd (NEDD4 WW2) is on record?
**A.** 22 µM

**Q.** And the Kd (NEDD4 WW4)?
**A.** 68 µM

**Q.** With “GLRRTDLVDFVNGTVDY [RdRp 1840-1855 (SVV)]” as the molecule, how does the KD (CLTC NTD; pH 7.5) read?
**A.** Low affinity binder

**Q.** For PVPAPRKPTPAPRTAFR [P08411_1764_1780], which motif_found ([1]; bait CD2AP_SH3_1_Q9Y5K6_2_58) is on record?
**A.** TRUE

**Q.** How did the Kd (CEP55 EABR) turn out when “QAQGPPYPTYPGYPGY [PDCD6IP 797-812 (Human)]” was run?
**A.** ~0.3 µM

**Q.** And the KD (CEP55 EABR)?
**A.** same order or tighter as the probe; also recorded: Due to the limitatons of our experimental setup we could not calculate the KD values for this peptide, however our experiments suggest very high affinity (mid to low nanomolar)

**Q.** For “VDEEKGLYPNLKLTEPTAPMIHNYM [Nsp4 118-142 (BAV)]”, which Kd (ALIX V) is on record?
**A.** 160 µM

**Q.** Which specificity [1] does the source give for TAPPAYADIGYPMSML here?
**A.** 0.889

**Q.** What about the RiboVD_mean_counts [1] of the same molecule?
**A.** 4550

**Q.** What about the RiboVD_count_proportions [1] of the same molecule?
**A.** 0.1419

**Q.** What about the peptide_counts_proportion [1, 2] of the same molecule?
**A.** 0.002

**Q.** What about the peptide_counts_proportion [1, 3] of the same molecule?
**A.** 0.008

**Q.** And the peptide_counts_proportion [1, 4]?
**A.** 0.416

**Q.** What does the source list for LPPPEYVPLHEISSKG?
**A.** specificity [1]: 0.991; RiboVD_mean_counts [1]: 729; RiboVD_count_proportions [1]: 0.02141; peptide_counts_proportion [1, 2]: 0.029; peptide_counts_proportion [1, 3]: 0.006; peptide_counts_proportion [1, 4]: 0.029

**Q.** How did the “affinity compared to the peptide from the endogenous PABP inhibitor PAIP2_108-123” value (PABPC1 PABC) turn out when `CC(C)C[C@H](NC(=O)CNC(=O)[C@H](C)NC(=O)[C@@H](N)CO)C(=O)N[C@@H](CC(N)=O)C(=O)N1CCC[C@H]1C(=O)N[C@@H](C)C(=O)N[C@@H](C)C(=O)N[C@H](C(=O)N1CCC[C@H]1C(=O)N[C@@H](Cc1ccccc1)C(=O)N[C@H](C(=O)N1CCC[C@H]1C(=O)N[C@@H](CCCCN)C(=O)N[C@@H](CC(N)=O)C(=O)N[C@@H](CCC(N)=O)C(=O)N[C@@H](Cc1ccc(O)cc1)C(=O)O)C(C)C)C(C)C` [P/V/C 183-198 (HeV)] was run?
**A.** ten-fold weaker

**Q.** With MSFGSF [P03317_1835_1840] as the molecule, how does the motif_found ([1]; bait G3BP2_NTF2_1_Q9UN86_1_139) read?
**A.** TRUE
